Results from patent US20230174488A1 (priority 2020, published 2023).

Each compound was assayed on SARS-CoV-2 (assay: In vitro antiviral cell-based assay (live SARS-CoV-2 IFA) in Vero cells). Settings: Severe acute respiratory syndrome coronavirus 2, MOI ~0.0125, 24 hpi.

In order of rising EC50:
1. CCN(CC)CCCC(C)Nc1ccnc2cc(Cl)ccc12 (centres unmarked) [Chloroquine, chloroquine, reference compound]  7.35 µM
2. O=C(NC1CCC(F)(F)CC1)C(c1cnccn1)N(C(=O)CCl)c1ccc(-c2cncs2)cc1 (centres unmarked) [INSCoV-601G, 2-Chloro-N-(2-((4,4-difluorocyclohexyl)amino)-2-oxo-1-(pyrazin-2-yl)ethyl)-N-(4-(thiazol-5-yl)phenyl)acetamide]  10.2 µM
3. O=C(NC1CCC(F)(F)CC1)C(c1cncnc1)N(C(=O)CCl)c1ccc(-c2cncs2)cc1 (single isomer, unassigned) [2-Chloro-N-(2-((4,4-difluorocyclohexyl)amino)-2-oxo-1-(pyrimidin-5-yl)ethyl)-N-(4-(thiazol-5-yl)phenyl)acetamide]  11.4 µM
4. O=C(NC1CCC(F)(F)CC1)C(c1cncnc1)N(C(=O)CCl)c1ccc(-c2ccno2)cc1 (single isomer, unassigned) [INSCoV-600J(1), 2-Chloro-N-(2-((4,4-difluorocyclohexyl)amino)-2-oxo-1-(pyrimidin-5-yl)ethyl)-N-(4-(isoxazol-5-yl)phenyl)acetamide]  14.2 µM

The compounds below were run against SARS-CoV-2 M^PRO (Severe acute respiratory syndrome coronavirus 2, UniProt P0DTD1) (assay: biochemical). Settings: In vitro potency data; 30 min pre-incubation, 25 nM M^pro, 25 µM substrate; listed as INSCoV-601R(lA); read-out: IC50.
Format: biochemical

With `O=C(NC1CCOC1)[C@H](c1cncnc1)N(C(=O)CCl)c1ccc(-c2cncs2)cc1` (some centres unmarked) [INSCoV-601R(1A)] the IC50 was 140 nM.

Same assay, conditions: In vitro potency data; 30 min pre-incubation, 25 nM M^pro, 25 µM substrate; read-out: IC50

First: O=C(NC1CCC(F)(F)CC1)C(c1cnccn1)N(C(=O)CCl)c1ccc(-c2cncs2)cc1 (centres unmarked) [INSCoV-601G, 2-Chloro-N-(2-((4,4-difluorocyclohexyl)amino)-2-oxo-1-(pyrazin-2-yl)ethyl)-N-(4-(thiazol-5-yl)phenyl)acetamide]
Second: O=C(NC1CCC(F)(F)CC1)C(c1cnccn1)N(C(=O)CCl)c1ccc(-c2ccns2)cc1 (single isomer, unassigned) [INSCoV-601I(2), 2-chloro-N-(2-((4,4-difluorocyclohexyl)amino)-2-oxo-1-(pyrazin-2-yl)ethyl)-N-(4-(isothiazol-5-yl)phenyl)acetamide]
The IC50 of the first is 2.6-fold lower: 80 nM for the first, 210 nM for the second. The first is the more potent here.

Compared with `O=C(NC1CCC(F)(F)CC1)C(c1cncnc1)N(C(=O)CCl)c1ccc(-c2ccno2)cc1` (single isomer, unassigned) [INSCoV-600J(1), 2-Chloro-N-(2-((4,4-difluorocyclohexyl)amino)-2-oxo-1-(pyrimidin-5-yl)ethyl)-N-(4-(isoxazol-5-yl)phenyl)acetamide], `O=C(NC1CCC(F)(F)CC1)[C@@H](c1cncnc1)N(C(=O)[C@H](F)Cl)c1ccc(-c2ccno2)cc1` (single isomer, unassigned) [INSCoV-614A(2B), 2-Chloro-N-(2-((4,4-difluorocyclohexyl)amino)-2-oxo-1-(pyrimidin-5-yl)ethyl)-2-fluoro-N-(4-(isoxazol-5-yl)phenyl)acetamide] is 140-fold higher in IC50: 63 nM for the first, 9110 nM for the second.

First: O=C(NC1CCC(F)(F)CC1)C(c1cncnc1)N(C(=O)CCl)c1ccc(-c2cncs2)cc1 (single isomer, unassigned) [2-Chloro-N-(2-((4,4-difluorocyclohexyl)amino)-2-oxo-1-(pyrimidin-5-yl)ethyl)-N-(4-(thiazol-5-yl)phenyl)acetamide]
Second: O=C(NC1CCC(F)(F)C1)C(c1cncnc1)N(C(=O)CCl)c1ccc(-c2cncs2)cc1 (centres unmarked) [INSCoV-601S]
The IC50 of the first is 1.8-fold lower: 50 nM for the first, 90 nM for the second.

`O=C(NC1CCOCC1)C(c1cncnc1)N(C(=O)CCl)c1ccc(-c2cnco2)cc1` (centres unmarked) [INSCoV-600A(2), 2-Chloro-N-(4-(Oxazol-5-yl)Phenyl)-N-(2-Oxo-1-(Pyrimidin-5-yl)-2-((Tetrahydro-2H-Pyran-4-yl)Amino)Ethyl)Acetamide] and `O=C(N[C@H]1CCOC1)[C@@H](c1cncnc1)N(C(=O)CCl)c1ccc(-c2cnco2)cc1` [INSCoV-600C(1A)] are within 1.5-fold of each other in IC50: 430 nM for the first, 340 nM for the second.

Going from `O=C(NC1CCOC1)[C@H](c1cncnc1)N(C(=O)CCl)c1ccc(-c2cncs2)cc1` (some centres unmarked) [INSCoV-601R] to `O=C(NC1CCC(F)(F)CC1)C(c1cncnc1)N(C(=O)CCl)c1ccc(-c2cncs2)cc1` (single isomer, unassigned) [INSCoV-600K(2), 2-Chloro-N-(2-((4,4-difluorocyclohexyl)amino)-2-oxo-1-(pyrimidin-5-yl)ethyl)-N-(4-(thiazol-5-yl)phenyl)acetamide], the IC50 rises from 120 nM to 430 nM (3.6-fold).

Going from `CC(C)(C)c1ccc(N(C(=O)C=O)C(C(=O)NC2CCCCC2)c2cccnc2)cc1` (centres unmarked) [INSCoV-110D] to `CC(C)(C)c1ccc(N(C(=O)CCl)C(C(=O)NC2CCCCC2)c2cccnc2)cc1` (single isomer, unassigned) [INSCoV-110A(1), 2-(4-tert-butyl-N-(2-chloroacetyl)anilino)-N-cyclohexyl-2-(3-pyridyl)acetamide], the IC50 falls from over 50000 nM to 1980 nM.

First: CC(C(=O)NC1CCC(F)(F)CC1)(c1cncnc1)N(C(=O)CCl)c1ccc(-c2ccno2)cc1 (single isomer, unassigned) [INSCoV-601P(1B), 2-(2-Chloro-N-(4-(isoxazol-5-yl)phenyl)acetamido)-N-(4,4-difluorocyclohexyl)-2-(pyrimidin-5-yl)propanamide]
Second: O=C(NC1CCC(F)(F)CC1)[C@@H](c1cncnc1)N(C(=O)[C@H](F)Cl)c1ccc(-c2ccno2)cc1 (single isomer, unassigned) [INSCoV-614A(1B), 2-Chloro-N-(2-((4,4-difluorocyclohexyl)amino)-2-oxo-1-(pyrimidin-5-yl)ethyl)-2-fluoro-N-(4-(isoxazol-5-yl)phenyl)acetamide]
The IC50 of the first is 2.7-fold higher: 13700 nM for the first, 5050 nM for the second.

First: CC1(NC(=O)C(c2cncnc2)N(C(=O)CCl)c2ccc(-c3cnco3)cc2)COC1 (centres unmarked) [INSCoV-600E, 2-(N-(2-chloroacetyl)-4-oxazol-5-yl-anilino)-N-(3-methyloxetan-3-yl)-2-pyrimidin-5-yl-acetamide]
Second: O=C(N[C@H]1CCC(F)(F)C1)C(c1cncnc1)N(C(=O)CCl)c1ccc(-c2cnco2)cc1 (some centres unmarked) [INSCoV-600B(2)]
The IC50 of the first is 3-fold higher: 570 nM for the first, 190 nM for the second.

Going from `O=C(NC1CCC(F)(F)CC1)[C@H](c1cncnc1)N(C(=O)[C@H]1CO1)c1ccc(-c2cnco2)cc1` [INSCoV-600R(1A)] to `O=C(NC1CCC(F)(F)CC1)C(c1cncnc1)N(C(=O)[C@@H]1CO1)c1ccc(-c2cnco2)cc1` (some centres unmarked) [INSCoV-600R(2)], the IC50 falls from over 25000 nM to 6450 nM. The second is the more potent here.

Compared with `COC(=O)c1ccc(NC(=O)[C@H](c2cncnc2)N(C(=O)CCl)c2ccc(-c3cncs3)cc2)[nH]1` [INSCoV-601T], `CNC(=O)c1cc(C)c(NC(=O)C(c2cncnc2)N(C(=O)CCl)c2ccc(-c3cnco3)cc2)c(Cl)c1` (centres unmarked) [INSCoV-6000, 3-chloro-4-[[2-(N-(2-chloroacetyl)-4-oxazol-5-yl-anilino)-2-pyrimidin-5-yl-acetyl]amino]-N,5-dimethyl-benzamide] is 6.4-fold higher in IC50: 170 nM for the first, 1090 nM for the second.

Going from `Cc1ccc(S(=O)(=O)CNC(=O)C(c2cnccn2)N(C(=O)CCl)c2ccc(-c3cnco3)cc2)cc1` (centres unmarked) [INSCoV-501O, 2-Chloro-N-(4-(Oxazol-5-yl)Phenyl)-N-(2-Oxo-1-(Pyrazin-2-yl)-2-((Tosylmethyl)Amino)Ethyl)Acetamide] to `Cc1ccc(S(=O)(=O)CNC(=O)C(c2cncnc2)N(C(=O)CCl)c2ccc(-c3cnco3)cc2)cc1` (centres unmarked) [INSCoV-501D], the IC50 rises from 1500 nM to 2510 nM (1.7-fold).

Going from `O=C(NC1CCN(S(=O)(=O)C2CC2)CC1)C(c1cnccn1)N(C(=O)CCl)c1ccc(-c2cnco2)cc1` (centres unmarked) [INSCoV-501R, 2-Chloro-N-(2-((1-(Cyclopropylsulfonyl)Piperidin-4-yl)Amino)-2-Oxo-1-(Pyrazin-2-yl)Ethyl)-N-(4-(Oxazol-5-yl)Phenyl)Acetamide] to `O=C(NC1CCC(F)(F)CC1)C(c1cnccn1)N(C(=O)CCl)c1ccc(-c2cnco2)cc1` (centres unmarked) [INSCoV-501S, 2-Chloro-N-(2-((4,4-Difluorocyclohexyl)Amino)-2-Oxo-1-(Pyrazin-2-yl)Ethyl)-N-(4-(Oxazol-5-yl)Phenyl)Acetamide], the IC50 falls from 480 nM to 240 nM (2-fold).

Compared with `CC(C)(C)c1ccc(N(C(=O)CCl)[C@](C)(C(=O)NC2CCCCC2)c2cccnc2)cc1` [INSCoV-538A(2)], `CC(C)(C)c1ccc(N(C(=O)CCl)C(C)(C(=O)NC2CCCCC2)c2cccnc2)cc1` (centres unmarked) [INSCoV-538A] is 11-fold lower in IC50: 9600 nM for the first, 900 nM for the second.

First: Cc1ccc(CCN(C(=O)CCl)C(C(=O)NC2CCCCC2)c2cccnc2)cc1 (centres unmarked) [INSCoV-503C]
Second: O=C(NC1CCCCC1)C(c1cccnc1)N(CCc1ccccc1Cl)C(=O)CCl (centres unmarked) [INSCoV-503D]
The IC50 of the first is 1.9-fold lower: 1380 nM for the first, 2650 nM for the second.

`CN1CCC(NC(=O)C(c2cncnc2)N(C(=O)CCl)c2ccc(-c3cnco3)cc2)CC1` (centres unmarked) [INSCoV-600M, 2-(N-(2-chloroacetyl)-4-oxazol-5-yl-anilino)-N-(1-methyl-4-piperidyl)-2-pyrimidin-5-yl-acetamide] and `O=C(NC1CC2(C1)CC(F)(F)C2)C(c1cncnc1)N(C(=O)CCl)c1ccc(-c2cnco2)cc1` (centres unmarked) [INSCoV-600F] are within 1.5-fold of each other in IC50: 500 nM for the first, 530 nM for the second.

First: CC(C)(C)c1ccc(N(C(=O)CCl)C(C(=O)NC2CCCCC2)c2cncnc2)cc1 (centres unmarked) [INSCoV-536, N-(4-(Tert-Butyl)Phenyl)-2-Chloro-N-(2-(Cyclohexylamino)-2-Oxo-1-(Pyrimidin-5-yl)Ethyl)Acetamide]
Second: C#CC(=O)N(c1ccc(C(C)(C)C)cc1)C(C(=O)NC1CCCCC1)c1cccnc1 (centres unmarked) [INSCoV-571]
The IC50 of the first is 10-fold lower: 620 nM for the first, 6280 nM for the second. The first is the more potent here.

Going from `O=C(NC1CCC(F)(F)CC1)[C@H](c1cncnc1)N(C(=O)[C@H](F)Cl)c1ccc(-c2cncs2)cc1` (single isomer, unassigned) [INSCoV-614(2A), 2-Chloro-N-(2-((4,4-difluorocyclohexyl)amino)-2-oxo-1-(pyrimidin-5-yl)ethyl)-2-fluoro-N-(4-(thiazol-5-yl)phenyl)acetamide] to `O=C(NC1CCC(F)(F)CC1)C(c1ccnnc1)N(C(=O)CCl)c1ccc(-c2cncs2)cc1` (centres unmarked) [INSCoV-601F, 2-Chloro-N-(2-((4,4-Difluorocyclohexyl)Amino)-2-Oxo-1-(Pvridazin-4-vl)Ethyl)-N-(4-(Thiazol-5-vl)Phenyl)Acetamide], the IC50 falls from 6940 nM to 130 nM (53-fold).

Compared with `O=C(NC1CCS(=O)(=O)CC1)C(c1cncnc1)N(CCc1cccc(F)c1)C(=O)CCl` (centres unmarked) [INSCoV-558A, 2-Chloro-N-(2-((1,1-Dioxidotetrahydro-2H-Thiopyran-4-yl)Amino)-2-Oxo-1-(Pyrimidin-5-yl)Ethyl)-N-(3-Fluorophenethyl)Acetamide], `O=C(NC1CCCCC1)C(c1cccnc1)N(CCc1ccccc1F)C(=O)CCl` (centres unmarked) [INSCoV-503G] is 4.9-fold higher in IC50: 470 nM for the first, 2300 nM for the second. The first is the more potent here.

First: O=C(NC1CCC(F)(F)CC1)C(c1cncnc1)N(C(=O)CCl)c1ccc(-c2ccncn2)cc1 (centres unmarked) [INSCoV-600L, 2-(N-(2-chloroacetyl)-4-pyrimidin-4-yl-anilino)-N-(4,4-difluorocyclohexyl)-2-pyrimidin-5-yl-acetamide]
Second: N#Cc1cc(OC(F)(F)F)ccc1N(C(=O)CCl)C(C(=O)NC1CCC(F)(F)CC1)c1cncnc1 (single isomer, unassigned) [INSCoV-517A(1A), 2-Chloro-N-(2-cyano-4-(trifluoromethoxy)phenyl)-N-(2-((4,4-difluorocyclohexyl)amino)-2-oxo-1-(pyrimidin-5-yl)ethyl)acetamide]
The IC50 of the first is 15-fold higher: 450 nM for the first, 30 nM for the second. The second is the more potent here.

Same assay, conditions: SARS-CoV-2 M^pro IC50′ nM, General summary table

For `O=C(NC1CCC(F)(F)CC1)C(c1cncnc1)N(C(=O)CCl)c1ccc(-c2cncs2)cc1` (single isomer, unassigned) [2-Chloro-N-(2-((4,4-difluorocyclohexyl)amino)-2-oxo-1-(pyrimidin-5-yl)ethyl)-N-(4-(thiazol-5-yl)phenyl)acetamide], the IC50 was 50 nM.
